# Laboratory results reported in patent publication US11357779B2 (G1 Therapeutics, Inc., priority 2018, dated 2022).
# Like-named read-outs stand apart in the source and are kept apart here.
# Assay: Plasma concentration versus time of Compound I and metabolite Compound III in patients dosed QD or BID with Form B of Compound II plus fulvestrant
# Type: in vivo, human
# Settings: human, plasma, oral, read-out: Compound I Concentration
# From the text: Patients were enrolled into 1 of 2 parallel, independently operating, dose-escalation dosing cohorts with Form B of Compound II administered continuously either once daily (QD) or twice daily (BID) with food with fixed-dose fulvestrant (intramuscularly every 14 days for the first three injections and then every 28 days). Pre- or perimenopausal patients also received goserelin for the duration of study treatment. A […] agonist was started at least 28 days before the first dose of Form B, and those patients who were taking another LHRH agonist were switched to goserelin on Day 1. Patients were split into […] cohorts providing once a day (QD) dosing of 200 mg, 300 mg, 400 mg, 500 mg, or 650 mg of Form B, or twice a day (BID) dosing of 100 mg, 150 mg, or 200 mg of Form B. The second dose in BID cohorts was not administered in the evening until at least 12 hours after the initial morning dose of Form B. The dosing cohorts for Form B of Compound II are provided in Table 1.
# Blood samples were collected at the following time points relative to the morning dose of Form B at Day 1 and at Day 29: pre-dose (0 hour) and 1, 2, 3, 4, 6, 8, 10, 12 (prior to the evening dose in the BID cohorts), and 24 (prior to the next day's morning dose) hours after dosing. A 5-minute time window was allowed for samples collected between the predose and 3 hours after Form B dosing. A 15-minute window was allowed for samples collected between 4 to 12 hours after Form B dosing. A 1-hour window was allowed for the sample collected 24 hours after Form B dosing. Blood samples for Compound I PK trough levels were collected pre-dose at Day 8, Day 15, and Day 22 prior to the morning administration of Compound I. Plasma concentrations of Compound I and its metabolite, Compound III, were measured using validated methods.
# Analysis of plasma concentration versus time data for calculation of standard pharmacokinetic (PK) parameters following oral administration was conducted using Phoenix WinNonlin version 6.3 using actual blood sampling times.
smiles,measurement,setting,value
"CC(C)N1CCN(c2ccc(Nc3ncc4cc5n(c4n3)C3(CCCCC3)CNC5=O)nc2)CC1 [Compound I, 2′-((5-(4-isopropylpiperazin-1-yl)pyridin-2-yl)amino)-7′,8′-dihydro-6′H-spiro[cyclohexane-1,9′-pyrazino[1′,2′:1,5]pyrrolo[2,3-d]pyrimidin]-6′-one]",concentration at 1 h,"300 mg, 300 mg QD of Form B, Day 29, 1.0 h, Median",15.4 ng/mL
same,concentration at 2 h,"300 mg, 300 mg QD of Form B, Day 29, 2.0 h, Mean",22.6 ng/mL
same,concentration at 2 h,"300 mg, 300 mg QD of Form B, Day 29, 2.0 h, Median",19.5 ng/mL
same,concentration at 3 h,"300 mg, 300 mg QD of Form B, Day 29, 3.0 h, Mean",31 ng/mL
same,concentration at 3 h,"300 mg, 300 mg QD of Form B, Day 29, 3.0 h, Median",26.3 ng/mL
same,concentration at 4 h,"300 mg, 300 mg QD of Form B, Day 29, 4.0 h, Mean",44.9 ng/mL
same,concentration at 4 h,"300 mg, 300 mg QD of Form B, Day 29, 4.0 h, Median",34.2 ng/mL
same,concentration at 6 h,"300 mg, 300 mg QD of Form B, Day 29, 6.0 h, Mean",35.9 ng/mL
same,concentration at 6 h,"300 mg, 300 mg QD of Form B, Day 29, 6.0 h, Median",39.2 ng/mL
same,concentration at 8 h,"300 mg, 300 mg QD of Form B, Day 29, 8.0 h, Mean",31.5 ng/mL
same,concentration at 8 h,"300 mg, 300 mg QD of Form B, Day 29, 8.0 h, Median",33.3 ng/mL
same,concentration at 10 h,"300 mg, 300 mg QD of Form B, Day 29, 10.0 h, Mean",25.6 ng/mL
same,concentration at 10 h,"300 mg, 300 mg QD of Form B, Day 29, 10.0 h, Median",18.9 ng/mL
same,concentration at 12 h,"300 mg, 300 mg QD of Form B, Day 29, 12.0 h, Mean",26.4 ng/mL
same,concentration at 12 h,"300 mg, 300 mg QD of Form B, Day 29, 12.0 h, Median",20.5 ng/mL
same,concentration at 24 h,"300 mg, 300 mg QD of Form B, Day 29, […], Mean",14.4 ng/mL
same,concentration at 24 h,"300 mg, 300 mg QD of Form B, Day 29, […], Median",10.9 ng/mL
same,concentration at 0 h,"400 mg, 400 mg QD of Form B, Day 1, 0.0 h, Mean",0 ng/mL
same,concentration at 0 h,"400 mg, 400 mg QD of Form B, Day 1, 0.0 h, Median",0 ng/mL
same,concentration at 1 h,"400 mg, 400 mg QD of Form B, Day 1, 1.0 h, Mean",5.32 ng/mL
same,concentration at 1 h,"400 mg, 400 mg QD of Form B, Day 1, 1.0 h, Median",2.26 ng/mL
same,concentration at 2 h,"400 mg, 400 mg QD of Form B, Day 1, 2.0 h, Mean",5.67 ng/mL
same,concentration at 2 h,"400 mg, 400 mg QD of Form B, Day 1, 2.0 h, Median",4.83 ng/mL
same,concentration at 3 h,"400 mg, 400 mg QD of Form B, Day 1, 3.0 h, Mean",9.21 ng/mL
same,concentration at 3 h,"400 mg, 400 mg QD of Form B, Day 1, 3.0 h, Median",9.38 ng/mL
same,concentration at 4 h,"400 mg, 400 mg QD of Form B, Day 1, 4.0 h, Mean",14 ng/mL
same,concentration at 4 h,"400 mg, 400 mg QD of Form B, Day 1, 4.0 h, Median",13.1 ng/mL
same,concentration at 6 h,"400 mg, 400 mg QD of Form B, Day 1, 6.0 h, Mean",20.1 ng/mL
same,concentration at 6 h,"400 mg, 400 mg QD of Form B, Day 1, 6.0 h, Median",21.6 ng/mL
same,concentration at 8 h,"400 mg, 400 mg QD of Form B, Day 1, 8.0 h, Mean",15.5 ng/mL
same,concentration at 8 h,"400 mg, 400 mg QD of Form B, Day 1, 8.0 h, Median",16 ng/mL
same,concentration at 10 h,"400 mg, 400 mg QD of Form B, Day 1, 10.0 h, Mean",10.6 ng/mL
same,concentration at 10 h,"400 mg, 400 mg QD of Form B, Day 1, 10.0 h, Median",9.56 ng/mL
same,concentration at 12 h,"400 mg, 400 mg QD of Form B, Day 1, 12.0 h, Mean",7.69 ng/mL
same,concentration at 12 h,"400 mg, 400 mg QD of Form B, Day 1, 12.0 h, Median",8.13 ng/mL
same,concentration at 24 h,"400 mg, 400 mg QD of Form B, Day 1, […], Mean",3.27 ng/mL
same,concentration at 24 h,"400 mg, 400 mg QD of Form B, Day 1, […], Median",3.31 ng/mL
same,concentration at 0 h,"400 mg, 400 mg QD of Form B, Day 29, 0.0 h, Mean",6.8 ng/mL
same,concentration at 0 h,"400 mg, 400 mg QD of Form B, Day 29, 0.0 h, Median",7.52 ng/mL
same,concentration at 1 h,"400 mg, 400 mg QD of Form B, Day 29, 1.0 h, Mean",8.07 ng/mL
same,concentration at 1 h,"400 mg, 400 mg QD of Form B, Day 29, 1.0 h, Median",9.88 ng/mL
same,concentration at 2 h,"400 mg, 400 mg QD of Form B, Day 29, 2.0 h, Mean",11.1 ng/mL
same,concentration at 2 h,"400 mg, 400 mg QD of Form B, Day 29, 2.0 h, Median",13.4 ng/mL
same,concentration at 3 h,"400 mg, 400 mg QD of Form B, Day 29, 3.0 h, Mean",14.2 ng/mL
same,concentration at 3 h,"400 mg, 400 mg QD of Form B, Day 29, 3.0 h, Median",17.2 ng/mL
same,concentration at 4 h,"400 mg, 400 mg QD of Form B, Day 29, 4.0 h, Mean",17 ng/mL
same,concentration at 4 h,"400 mg, 400 mg QD of Form B, Day 29, 4.0 h, Median",21.2 ng/mL
same,concentration at 6 h,"400 mg, 400 mg QD of Form B, Day 29, 6.0 h, Mean",18.9 ng/mL
same,concentration at 6 h,"400 mg, 400 mg QD of Form B, Day 29, 6.0 h, Median",23.2 ng/mL
same,concentration at 8 h,"400 mg, 400 mg QD of Form B, Day 29, 8.0 h, Mean",17 ng/mL
same,concentration at 8 h,"400 mg, 400 mg QD of Form B, Day 29, 8.0 h, Median",20.5 ng/mL
same,concentration at 10 h,"400 mg, 400 mg QD of Form B, Day 29, 10.0 h, Mean",14.2 ng/mL
same,concentration at 10 h,"400 mg, 400 mg QD of Form B, Day 29, 10.0 h, Median",17.1 ng/mL
same,concentration at 12 h,"400 mg, 400 mg QD of Form B, Day 29, 12.0 h, Mean",11.8 ng/mL
same,concentration at 12 h,"400 mg, 400 mg QD of Form B, Day 29, 12.0 h, Median",13.5 ng/mL
same,concentration at 24 h,"400 mg, 400 mg QD of Form B, Day 29, […], Mean",6.26 ng/mL
same,concentration at 24 h,"400 mg, 400 mg QD of Form B, Day 29, […], Median",7.04 ng/mL
same,concentration at 0 h,"500 mg, 500 mg QD of Form B, Day 1, 0.0 h, Mean",0 ng/mL
